Test results: PubChem BioAssay AID2060607 (Molecular Pharmacology Branch, DTP, NCI, 2025)
Several values for one entry are separate records, joined by “and”; a condition that tells them apart may be missing. Equal values may be shown once.

Test system: 876862-298-R-J1-PDC complex spheroids, viability % test/control
Assay: Anticancer human tumor 876862-298-R-J1-PDC patient-derived endometrial carcinoma cell line growth inhibition [CLK]
Details: for viability, T/C: stronger effect = lower value
How it was run: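 Patient-derived tumor cells grown as complex spheroids with HUVEC endothelial cells and mesenchymal stem cells, treated with drug combinations. Concentrations descend in half-log steps from near clinical Cmax, or from 10 microM if Cmax unknown.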

[1] = curve of first compound, second compound 0.0316 µM
[2] = curve of first compound, second compound 0.1 µM
[3] = curve of first compound, second compound 0.316 µM
[4] = curve of first compound, second compound 1 µM
[5] = curve of first compound, second compound 3.16 µM
[6] = curve of first compound, second compound 10 µM
[7] = second compound 0.0316 µM, first compound 0.0316 µM
[8] = second compound 0.0316 µM, first compound 0.1 µM
[9] = second compound 0.0316 µM, first compound 0.316 µM
[10] = second compound 0.0316 µM, first compound 1 µM
[11] = second compound 0.0316 µM, first compound 3.16 µM
[12] = second compound 0.0316 µM, first compound 10 µM
[13] = second compound 0.1 µM, first compound 0.0316 µM
[14] = second compound 0.1 µM, first compound 0.1 µM
[15] = second compound 0.1 µM, first compound 0.316 µM
[16] = second compound 0.1 µM, first compound 1 µM
[17] = second compound 0.1 µM, first compound 3.16 µM
[18] = second compound 0.1 µM, first compound 10 µM
[19] = second compound 0.316 µM, first compound 0.0316 µM
[20] = second compound 0.316 µM, first compound 0.1 µM
[21] = second compound 0.316 µM, first compound 0.316 µM
[22] = second compound 0.316 µM, first compound 1 µM
[23] = second compound 0.316 µM, first compound 3.16 µM
[24] = second compound 0.316 µM, first compound 10 µM
[25] = second compound 1 µM, first compound 0.0316 µM
[26] = second compound 1 µM, first compound 0.1 µM
[27] = second compound 1 µM, first compound 0.316 µM
[28] = second compound 1 µM, first compound 1 µM
[29] = second compound 1 µM, first compound 3.16 µM
[30] = second compound 1 µM, first compound 10 µM
[31] = second compound 3.16 µM, first compound 0.0316 µM
[32] = second compound 3.16 µM, first compound 0.1 µM
[33] = second compound 3.16 µM, first compound 0.316 µM
[34] = second compound 3.16 µM, first compound 1 µM
[35] = second compound 3.16 µM, first compound 3.16 µM
[36] = second compound 3.16 µM, first compound 10 µM
[37] = second compound 10 µM, first compound 0.0316 µM
[38] = second compound 10 µM, first compound 0.1 µM
[39] = second compound 10 µM, first compound 0.316 µM
[40] = second compound 10 µM, first compound 1 µM
[41] = second compound 10 µM, first compound 3.16 µM
[42] = second compound 10 µM, first compound 10 µM
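Also: spheroids exposed to drugs for 7 days before readout.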
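For viability, T/C in this document: 100% = DMSO vehicle control wells.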

With `COc1ccc([C@@H](O)c2cc(-c3ncnc4cc(N5CCOCC5)ccc34)c(F)cc2Cl)nn1` + CN1CCN(c2cc(C(=O)Nc3cc4cc(-c5cnn(C)c5)ccc4cn3)ccn2)CC1 as the compound, how does the IC50 [1] read?
The IC50 was 4950 nM.

What about the IC50 [2] of the same compound?
Its IC50 is less than 31.6 nM.

And the IC50 [3]?
The IC50 was less than 31.6 nM.

And the IC50 [4]?
The IC50 was less than 31.6 nM.

And the IC50 [5]?
The IC50 was less than 31.6 nM.

And the IC50 [6]?
The IC50 was less than 31.6 nM.

What about the viability, T/C [7] of the same compound?
The viability, T/C was 93.3%.

And the viability, T/C [8]?
The viability, T/C was 90%.

What about the viability, T/C [9] of the same compound?
The viability, T/C was 86%.

What about the viability, T/C [10] of the same compound?
The viability, T/C was 84.2%.

What about the viability, T/C [11] of the same compound?
Its viability, T/C is 59.2%.

And the viability, T/C [12]?
Its viability, T/C is 35%.

What about the viability, T/C [13] of the same compound?
Its viability, T/C is 46.2%.

What about the viability, T/C [14] of the same compound?
The viability, T/C was 43.4%.

And the viability, T/C [15]?
Its viability, T/C is 47%.

What about the viability, T/C [16] of the same compound?
Its viability, T/C is 42.8%.

What about the viability, T/C [17] of the same compound?
The viability, T/C was 31.5%.

What about the viability, T/C [18] of the same compound?
The viability, T/C was 21.1%.

What about the viability, T/C [19] of the same compound?
Its viability, T/C is 2.02%.

What about the viability, T/C [20] of the same compound?
The viability, T/C was 2.01%.

And the viability, T/C [21]?
Its viability, T/C is 3%.

And the viability, T/C [22]?
The viability, T/C was 2.2%.

What about the viability, T/C [23] of the same compound?
The viability, T/C was 1.56%.

What about the viability, T/C [24] of the same compound?
Its viability, T/C is 2.98%.

And the viability, T/C [25]?
Its viability, T/C is 0.64%.

What about the viability, T/C [26] of the same compound?
The viability, T/C was 0.77%.

And the viability, T/C [27]?
Its viability, T/C is 0.64%.

What about the viability, T/C [28] of the same compound?
The viability, T/C was 0.69%.

What about the viability, T/C [29] of the same compound?
Its viability, T/C is 0.55%.

And the viability, T/C [30]?
Its viability, T/C is 2.27%.

And the viability, T/C [31]?
The viability, T/C was 1.08%.

And the viability, T/C [32]?
Its viability, T/C is 2.43%.

And the viability, T/C [33]?
The viability, T/C was 1.6%.

And the viability, T/C [34]?
Its viability, T/C is 1%.

And the viability, T/C [35]?
Its viability, T/C is 2.06%.

What about the viability, T/C [36] of the same compound?
The viability, T/C was 1.3%.

And the viability, T/C [37]?
The viability, T/C was 0.75%.

And the viability, T/C [38]?
The viability, T/C was 0.99%.

What about the viability, T/C [39] of the same compound?
The viability, T/C was 1.44%.

What about the viability, T/C [40] of the same compound?
Its viability, T/C is 1.58%.

What about the viability, T/C [41] of the same compound?
Its viability, T/C is 1.58%.

And the viability, T/C [42]?
The viability, T/C was 1.69%.

With `C=CC(=O)N1CCN(c2nc(=O)n(-c3c(C)ccnc3C(C)C)c3nc(-c4c(O)cccc4F)c(F)cc23)C(C)C1` (stereo not given) as the compound, how does the viability, T/C (compound 0.0316 µM) read?
Its viability, T/C is 95.8%.

And the viability, T/C (compound 0.1 µM)?
The viability, T/C was 97.3% and 99.5%.

And the viability, T/C (compound 0.316 µM)?
The viability, T/C was 102% and 108%.

And the viability, T/C (compound 1 µM)?
Its viability, T/C is 106% and 103%.

What about the viability, T/C (compound 3.16 µM) of the same compound?
Its viability, T/C is 110% and 114%.

And the viability, T/C (compound 10 µM)?
The viability, T/C was 94.6% and 83%.

What about the IC50 (curve of compound) of the same compound?
Its IC50 is greater than 10000 nM.

How did the viability, T/C (compound 0.0316 µM) turn out when `CC1COCCN1c1cc(C2(S(C)(=N)=O)CC2)nc(-c2ccnc3[nH]ccc23)n1` (stereo not given) was run?
Its viability, T/C is 110% and 102%.

And the viability, T/C (compound 0.1 µM)?
The viability, T/C was 99.5% and 104%.

What about the viability, T/C (compound 0.316 µM) of the same compound?
The viability, T/C was 89.4% and 94.8%.

And the viability, T/C (compound 1 µM)?
Its viability, T/C is 77.1% and 79.5%.

What about the viability, T/C (compound 3.16 µM) of the same compound?
Its viability, T/C is 55% and 44%.

What about the viability, T/C (compound 10 µM) of the same compound?
The viability, T/C was 27% and 18.8%.

What about the IC50 (curve of compound) of the same compound?
The IC50 was 3890 nM and 2620 nM.

For `C=C(F)C(=O)N1CCN(c2nc(OCC3CCCN3C)nc3c2CCN(c2cccc4cccc(Cl)c24)C3)CC1CC#N` (stereo not given) + CN1CCN(c2cc(C(=O)Nc3cc4cc(-c5cnn(C)c5)ccc4cn3)ccn2)CC1, which IC50 [1] is on record?
The IC50 was 4840 nM.

What about the IC50 [2] of the same compound?
The IC50 was 3190 nM.

What about the IC50 [3] of the same compound?
Its IC50 is less than 31.6 nM.

And the IC50 [4]?
Its IC50 is less than 31.6 nM.

What about the IC50 [5] of the same compound?
Its IC50 is less than 31.6 nM.

And the IC50 [6]?
Its IC50 is less than 31.6 nM.

What about the viability, T/C [7] of the same compound?
Its viability, T/C is 82.8%.

And the viability, T/C [8]?
The viability, T/C was 93.9%.

What about the viability, T/C [9] of the same compound?
Its viability, T/C is 82.3%.

What about the viability, T/C [10] of the same compound?
Its viability, T/C is 95.2%.

And the viability, T/C [11]?
Its viability, T/C is 73.6%.

What about the viability, T/C [12] of the same compound?
Its viability, T/C is 9.9%.

And the viability, T/C [13]?
Its viability, T/C is 47.9%.

And the viability, T/C [14]?
Its viability, T/C is 51.7%.

And the viability, T/C [15]?
Its viability, T/C is 50.4%.

What about the viability, T/C [16] of the same compound?
The viability, T/C was 51.6%.

What about the viability, T/C [17] of the same compound?
The viability, T/C was 50.4%.

What about the viability, T/C [18] of the same compound?
The viability, T/C was 4.78%.

What about the viability, T/C [19] of the same compound?
The viability, T/C was 4.71%.

And the viability, T/C [20]?
The viability, T/C was 4.05%.

What about the viability, T/C [21] of the same compound?
Its viability, T/C is 6.86%.

And the viability, T/C [22]?
The viability, T/C was 5.08%.

And the viability, T/C [23]?
Its viability, T/C is 3.01%.

What about the viability, T/C [24] of the same compound?
Its viability, T/C is 0.46%.

What about the viability, T/C [25] of the same compound?
Its viability, T/C is 1.31%.

What about the viability, T/C [26] of the same compound?
Its viability, T/C is 1.26%.

What about the viability, T/C [27] of the same compound?
The viability, T/C was 0.91%.

And the viability, T/C [28]?
Its viability, T/C is 1.47%.

What about the viability, T/C [29] of the same compound?
Its viability, T/C is 1.43%.

What about the viability, T/C [30] of the same compound?
The viability, T/C was 0.85%.

And the viability, T/C [31]?
Its viability, T/C is 1.01%.

And the viability, T/C [32]?
Its viability, T/C is 1.11%.

And the viability, T/C [33]?
The viability, T/C was 2.16%.

What about the viability, T/C [34] of the same compound?
The viability, T/C was 1.83%.

And the viability, T/C [35]?
The viability, T/C was 1.72%.

What about the viability, T/C [36] of the same compound?
Its viability, T/C is 0.4%.

What about the viability, T/C [37] of the same compound?
The viability, T/C was 0.93%.

And the viability, T/C [38]?
Its viability, T/C is 1.28%.

And the viability, T/C [39]?
Its viability, T/C is 2.22%.

And the viability, T/C [40]?
Its viability, T/C is 1.62%.

What about the viability, T/C [41] of the same compound?
Its viability, T/C is 1.63%.

And the viability, T/C [42]?
Its viability, T/C is 1.23%.

For `O=C(c1cc(Cc2n[nH]c(=O)c3ccccc23)ccc1F)N1CCN(C(=O)C2CC2)CC1`, which viability, T/C (compound 0.0316 µM) is on record?
Its viability, T/C is 105% and 91.5%.

What about the viability, T/C (compound 0.1 µM) of the same compound?
The viability, T/C was 107% and 99%.

What about the viability, T/C (compound 0.316 µM) of the same compound?
The viability, T/C was 109% and 99.4%.

And the viability, T/C (compound 1 µM)?
The viability, T/C was 109% and 104%.

What about the viability, T/C (compound 3.16 µM) of the same compound?
Its viability, T/C is 108% and 106%.

And the viability, T/C (compound 10 µM)?
Its viability, T/C is 90.4% and 89.1%.

What about the IC50 (curve of compound) of the same compound?
Its IC50 is greater than 10000 nM.
